Test results as given in article PMC11968843, “Sulphostin-inspired N-phosphonopiperidones as selective covalent DPP8 and DPP9 inhibitors” (Nature Communications, 2025).

Assays:
Test in all cases: Competitive ABPP / direct target identification with alkyne probe 9 in HEK293 cell lysates
Assay type in all cases: binding, H. sapiens
[1] = target: T1, HEK293 cell lysates (proteome-wide targets of probe 9) (Homo sapiens, UniProt O00295); details: protein TULP2
T1 construct: endogenous in cells; host or cells: HEK293 cell lysate

[2] = target: T2, HEK293 cell lysates (proteome-wide targets of probe 9) (Homo sapiens, UniProt P00338); details: protein LDHA
T2 construct: endogenous in cells; host or cells: HEK293 cell lysate

[3] = target: T3, HEK293 cell lysates (proteome-wide targets of probe 9) (Homo sapiens, UniProt P04075); details: protein ALDOA
T3 construct: endogenous in cells; host or cells: HEK293 cell lysate

[4] = target: T4, HEK293 cell lysates (proteome-wide targets of probe 9) (Homo sapiens, UniProt P05387); details: protein RPLP2
T4 construct: endogenous in cells; host or cells: HEK293 cell lysate

[5] = target: T5, HEK293 cell lysates (proteome-wide targets of probe 9) (Homo sapiens, UniProt P06733); details: protein ENO1
T5 construct: endogenous in cells; host or cells: HEK293 cell lysate

[6] = target: T6, HEK293 cell lysates (proteome-wide targets of probe 9) (Homo sapiens, UniProt P07195); details: protein LDHB
T6 construct: endogenous in cells; host or cells: HEK293 cell lysate

[7] = target: T7, HEK293 cell lysates (proteome-wide targets of probe 9) (Homo sapiens, UniProt P07814); details: protein EPRS
T7 construct: endogenous in cells; host or cells: HEK293 cell lysate

[8] = target: T8, HEK293 cell lysates (proteome-wide targets of probe 9) (Homo sapiens, UniProt P08758); details: protein ANXA5
T8 construct: endogenous in cells; host or cells: HEK293 cell lysate

[9] = target: T9, HEK293 cell lysates (proteome-wide targets of probe 9) (Homo sapiens, UniProt P14174); details: protein MIF
T9 construct: endogenous in cells; host or cells: HEK293 cell lysate

[10] = target: T10, HEK293 cell lysates (proteome-wide targets of probe 9) (Homo sapiens, UniProt P22234); details: protein PAICS
T10 construct: endogenous in cells; host or cells: HEK293 cell lysate

[11] = target: T11, HEK293 cell lysates (proteome-wide targets of probe 9) (Homo sapiens, UniProt P23526); details: protein AHCY
T11 construct: endogenous in cells; host or cells: HEK293 cell lysate

[12] = target: T12, HEK293 cell lysates (proteome-wide targets of probe 9) (Homo sapiens, UniProt P26373); details: protein RPL13
T12 construct: endogenous in cells; host or cells: HEK293 cell lysate

[13] = target: T13, HEK293 cell lysates (proteome-wide targets of probe 9) (Homo sapiens, UniProt P26641); details: protein EEF1G
T13 construct: endogenous in cells; host or cells: HEK293 cell lysate

[14] = target: T14, HEK293 cell lysates (proteome-wide targets of probe 9) (Homo sapiens, UniProt P37837); details: protein TALDO1
T14 construct: endogenous in cells; host or cells: HEK293 cell lysate

[15] = target: T15, HEK293 cell lysates (proteome-wide targets of probe 9) (Homo sapiens, UniProt P46776); details: protein RPL27A
T15 construct: endogenous in cells; host or cells: HEK293 cell lysate

[16] = target: T16, HEK293 cell lysates (proteome-wide targets of probe 9) (Homo sapiens, UniProt P49327); details: protein FASN
T16 construct: endogenous in cells; host or cells: HEK293 cell lysate

[17] = target: T17, HEK293 cell lysates (proteome-wide targets of probe 9) (Homo sapiens, UniProt P50990); details: protein CCT8
T17 construct: endogenous in cells; host or cells: HEK293 cell lysate

[18] = target: T18, HEK293 cell lysates (proteome-wide targets of probe 9) (Homo sapiens, UniProt P60842); details: protein EIF4A1
T18 construct: endogenous in cells; host or cells: HEK293 cell lysate

[19] = target: T19, HEK293 cell lysates (proteome-wide targets of probe 9) (Homo sapiens, UniProt P62280); details: protein RPS11
T19 construct: endogenous in cells; host or cells: HEK293 cell lysate

[20] = target: T20, HEK293 cell lysates (proteome-wide targets of probe 9) (Homo sapiens, UniProt P62829); details: protein RPL23
T20 construct: endogenous in cells; host or cells: HEK293 cell lysate

[21] = target: T21, HEK293 cell lysates (proteome-wide targets of probe 9) (Homo sapiens, UniProt P62937); details: protein PPIA
T21 construct: endogenous in cells; host or cells: HEK293 cell lysate

[22] = target: T22, HEK293 cell lysates (proteome-wide targets of probe 9) (Homo sapiens, UniProt P63104); details: protein YWHAZ
T22 construct: endogenous in cells; host or cells: HEK293 cell lysate

[23] = target: T23, HEK293 cell lysates (proteome-wide targets of probe 9) (Homo sapiens, UniProt P78371); details: protein CCT2
T23 construct: endogenous in cells; host or cells: HEK293 cell lysate

[24] = target: T24, HEK293 cell lysates (proteome-wide targets of probe 9) (Homo sapiens, UniProt P83731); details: protein RPL24
T24 construct: endogenous in cells; host or cells: HEK293 cell lysate

[25] = target: T25, HEK293 cell lysates (proteome-wide targets of probe 9) (Homo sapiens, UniProt Q06830); details: protein PRDX1
T25 construct: endogenous in cells; host or cells: HEK293 cell lysate

[26] = target: T26, HEK293 cell lysates (proteome-wide targets of probe 9) (Homo sapiens, UniProt Q08211); details: protein DHX9
T26 construct: endogenous in cells; host or cells: HEK293 cell lysate

[27] = target: T27, HEK293 cell lysates (proteome-wide targets of probe 9) (Homo sapiens, UniProt Q14697); details: protein GANAB
T27 construct: endogenous in cells; host or cells: HEK293 cell lysate

[28] = target: T28, HEK293 cell lysates (proteome-wide targets of probe 9) (Homo sapiens, UniProt Q96RQ3); details: protein MCCC1
T28 construct: endogenous in cells; host or cells: HEK293 cell lysate

[29] = target: T29, HEK293 cell lysates (proteome-wide targets of probe 9) (Homo sapiens, UniProt Q9NR30); details: protein DDX21
T29 construct: endogenous in cells; host or cells: HEK293 cell lysate

[30] = test system: HEK293 cell lysates (proteome-wide targets of probe 9)
[31] = protein HIST1H1C;HIST1H1E;HIST1H1D
[32] = protein group Histone H2A type 1 (HIST1H2AG and others)

CCCCCc1ccc(SCCP(=O)(OCC)N2CCC[C@H](N)C2=O)cc1.O=C(O)C(F)(F)F (stereo partly shown) [Compound 16]
Log2-fold change (16/9) [1]: 0.6272
Log2-fold change (16/9) [2]: 0.1049
Log2-fold change (16/9) [3]: -0.5623
Log2-fold change (16/9) [4]: -0.0326
Log2-fold change (16/9) [5]: 0.05891
Log2-fold change (16/9) [6]: 0.1493
Log2-fold change (16/9) [7]: -0.09528
Log2-fold change (16/9) [8]: 0.8558
Log2-fold change (16/9) [9]: -0.05345
Log2-fold change (16/9) [10]: 0.0197
Log2-fold change (16/9) [11]: -0.05498
Log2-fold change (16/9) [12]: -0.8436
Log2-fold change (16/9) [13]: -0.1709
Log2-fold change (16/9) [14]: 0.1822
Log2-fold change (16/9) [15]: 0.01928
Log2-fold change (16/9) [16]: -0.4881
Log2-fold change (16/9) [17]: -0.5032
Log2-fold change (16/9) [18]: -1.788
Log2-fold change (16/9) [19]: 0.1367
Log2-fold change (16/9) [20]: -1.084
Log2-fold change (16/9) [21]: -1.716
Log2-fold change (16/9) [22]: 0.4135
Log2-fold change (16/9) [23]: -0.827
Log2-fold change (16/9) [24]: 1.34
Log2-fold change (16/9) [25]: 0.107
Log2-fold change (16/9) [26]: -0.1923
Log2-fold change (16/9) [27]: 0.1876
Log2-fold change (16/9) [28]: 0.1036
Log2-fold change (16/9) [29]: 0.06992
competition of labeling by probe 9 ([30]; 50 µM competitor, 10 µM 9, HEK293 lysates): solely DPP9 was competed
Log2-fold change (16/9) ([30]; protein EEF1A1;EEF1A1P5;EEF1A2): -1.204
Log2-fold change (16/9) ([30]; protein EIF5A;EIF5AL1): -2.135
Log2-fold change (16/9) [30, 31]: -0.04142
Log2-fold change (16/9) ([30]; protein HNRNPH1;HNRNPH2): 0.1964
Log2-fold change (16/9) ([30]; protein HSPA1A;HSPA1B): -0.2164
Log2-fold change (16/9) ([30]; protein ID A0A1B0GV53): 0.5692
Log2-fold change (16/9) ([30]; protein NME1;NME2): -0.08451
Log2-fold change (16/9) ([30]; protein PABPC1;PABPC3): -0.421
Log2-fold change (16/9) ([30]; protein PGAM1;PGAM2): -2.097
Log2-fold change (16/9) ([30]; protein RPLP0;RPLP0P6): -0.5558
Log2-fold change (16/9) ([30]; protein TUBB4B;TUBB4A): -2.026
Log2-fold change (16/9) [30, 32]: 0.5881

C#CCCCP(=O)(OCC)N1CCCC(N)C1=O.O=C(O)C(F)(F)F (mixture of isomers) [Compound 9]
Log2-fold change (9/DMSO) [1]: -0.1649
Log2-fold change (9/DMSO) [2]: -0.2121
Log2-fold change (9/DMSO) [3]: 0.3187
Log2-fold change (9/DMSO) [4]: 0.606
Log2-fold change (9/DMSO) [5]: -0.0902
Log2-fold change (9/DMSO) [6]: 0.03494
Log2-fold change (9/DMSO) [7]: 0.7172
Log2-fold change (9/DMSO) [8]: -0.9261
Log2-fold change (9/DMSO) [9]: 2.233
Log2-fold change (9/DMSO) [10]: -0.1992
Log2-fold change (9/DMSO) [11]: -0.3328
Log2-fold change (9/DMSO) [12]: 1.809
Log2-fold change (9/DMSO) [13]: 0.4327
Log2-fold change (9/DMSO) [14]: 0.3993
Log2-fold change (9/DMSO) [15]: -2.372
Log2-fold change (9/DMSO) [16]: 0.4818
Log2-fold change (9/DMSO) [17]: 0.4828
Log2-fold change (9/DMSO) [18]: 0.03837
Log2-fold change (9/DMSO) [19]: -0.5072
Log2-fold change (9/DMSO) [20]: 0.1532
Log2-fold change (9/DMSO) [21]: 1.44
Log2-fold change (9/DMSO) [22]: 0.2647
Log2-fold change (9/DMSO) [23]: 1.1495
Log2-fold change (9/DMSO) [24]: -0.3893
Log2-fold change (9/DMSO) [25]: 0.4333
Log2-fold change (9/DMSO) [26]: -0.5054
Log2-fold change (9/DMSO) [27]: 0.2816
Log2-fold change (9/DMSO) [28]: -0.5895
Log2-fold change (9/DMSO) [29]: 0.9591
proteins significantly enriched by the alkyne probe ([30]; 10 µM probe, HEK293 lysates): significant enrichment of only two proteins, namely DPP9 and the off-target prolyl endopeptidase (PREP)
Log2-fold change (9/DMSO) ([30]; protein EEF1A1;EEF1A1P5;EEF1A2): 0.04533
Log2-fold change (9/DMSO) ([30]; protein EIF5A;EIF5AL1): 1.278
Log2-fold change (9/DMSO) [30, 31]: 0.83
Log2-fold change (9/DMSO) ([30]; protein HNRNPH1;HNRNPH2): -0.1168
Log2-fold change (9/DMSO) ([30]; protein ID A0A1B0GV53): -4.4932
Log2-fold change (9/DMSO) ([30]; protein NME1;NME2): 0.34
Log2-fold change (9/DMSO) ([30]; protein PABPC1;PABPC3): 0.8323
Log2-fold change (9/DMSO) ([30]; protein PGAM1;PGAM2): 1.799
Log2-fold change (9/DMSO) ([30]; protein TUBB4B;TUBB4A): 1.386
Log2-fold change (9/DMSO) [30, 32]: -1.664
